Values of other authors in patent publication US8293800B2, “Quinone derivative 2,3-dimethoxy-5-methyl-6-(10-hydroxydecyl)-1,4-benzoquinone for the treatment of primary progressive multiple sclerosis” (Santhera Pharmaceuticals (Schweiz) AG, priority 2009, dated 2012).

Columns and labels:
[1] = chronic-progressive form of MS; 90 mg/day in combination with methylprednisolone over 240 days
[2] = PP-MS cohort; did not reach statistical significance
[3] = PP-MS, placebo-controlled Phase II
[4] = PP-MS patients

## COC1=C(OC)C(=O)C(CCCCCCCCCCO)=C(C)C1=O [Idebenone, 2,3-dimethoxy-5-methyl-6-(10-hydroxydecyl)-1,4-benzoquinone]
[1]
  clinical or neurophysiological efficacy: could not be shown to have any clinical or neurophysiological efficacy

## Nc1nc2ccc(OC(F)(F)F)cc2s1 [riluzole]
[2]
  inhibiting the development of cervical cord atrophy: mild effect

## Rituximab: Rituximab, tested in a placebo-controlled Phase II trial in PP-MS
[3]
  effect on the accumulation of disability: failed to demonstrate any effect

## interferon-beta
[4]
  could slow down the accumulation of disability in PP-MS: Neither
